Measurements taken from patent US10413583B2, “Synthetic substrates for enzymes that catalyze reactions of modified cysteines and related methods” (The University of Chicago, priority 2016, dated 2019).
Entries after “also recorded” stand apart in the source; their conditions may differ.

Key:
MCF-7 cells = experiment: Flow cytometry of DPP-3 in MCF-7 cells; format: cell-based, human; details: 1 μM inhibitor, 5 μM DPP-3, 5 min
Experimental: (§1) Cells were plated on a 10 cm dish with 10 mL of DMEM/High Glucose (10% FBS, 1% P/S, L-Glutamine, Sodium pyruvate) 36-48 hours prior to the day of experiment and maintained at 37° C., 5% CO2 so as to obtain 80-90% confluency. Cells were washed with DPBS and trypsinized with 1 mL 0.05% Trypsin. 5 mL of DMEM/High Glucose (10% FBS, L-Glutamine, Sodium pyruvate) was added and cells were spun down at 1200 rpm for 3 min. Media was discarded and cells were resuspended in 5 mL of Live Cell Imaging Solution and again spun down at 1200 rpm for 3 min. The cells pellets obtained were resuspended in 3-5 mL of Live Cell Imaging Solution and divided into 500 μL aliquots. The aliquots were treated with either 0.2% DMSO carrier or 1 μM of PalmB/ML348 or 1 μM/5 μM of ML349 inhibitor. After 30 min of incubation at room temperature, 1 μL of 2.5 mM DPP-3 in DMSO was added to each aliquot for a final concentration of 5 μM, and the solutions were mixed. After 5 min incubation at room temperature, fluorescence signal in FITC channel was measured for 10000 cells (5000 for HeLa experiments) on a LSR-Fortessa 4-15 HTS (BD digital instrument, 488 nm laser with 530/30 nm filter for FITC; BD, Franklin Lakes, N.J., United States of America). For analyzing DPP2 in HEK293T cells, the aliquots were treated with either 0.2% DMSO carrier or 2 μM of PalmB, 5 or 20 μM of ML348/ML349 and then analyzed by the protocol as mentioned above. Data was analyzed by FlowJo software version 10.0.8. For comparison of A431 starved versus non-starved, parallel 10 cm dishes of A431 cells were plated in 10 mL of DMEM (high glucose, 10% FBS, 1% P/S), and grown for 36 h. The growth media was removed, and replaced by 10 mL of either DMEM (High glucose) with 10% FBS to maintain “growth” conditions, or DMEM (High glucose) without FBS respectively for “starvation” conditions, and incubated for 14 h. After trypsinization, both plates were treated with 5 mL of DMEM (high glucose) for spinning the cells down, and further processing and analysis were performed as described above by flow cytometry.

HeLa cells [1] = experiment: Flow cytometry of DPP-3 in HeLa cells; format: cell-based, human; details: 1 μM inhibitor, 5 μM DPP-3, 5 min
Experimental: as §1

HEK293T cells = experiment: Epifluorescent imaging of DPP-5 (and DPP-1, DPP-4) in HEK293T cells; format: cell-based, human
Experimental: (§2) 250,000 HEK293T cells/well, 120,000 HeLa cells/well, or 100,000 HepG2 cells/well were plated in 700 μL DMEM glutamax (10% FBS+1% P/S) into 4-well chambered imaging dish (D35C4-20-1.5-N, Cellvis, Mountain View, Calif., United States of America), which were precoated with 5 μg Poly-D-lysine (30-70 KDa, Alfa Aesar, Haverhill, Mass., United States of America) for 2 h. After 20-24 h, the media was replaced by 1 μM Hoechst 33342 and DMSO/5 μM PalmB in 400 μL DMEM glutamax. After 30 min of incubation at 37° C., the cells were washed with 400 μL of Live Cell Imaging Solution and replaced by 1 μM DPP-5 with DMSO or 5 μM of PalmB in Live Cell Imaging Solution. […] For data analysis, the average fluorescence intensity per image in each experimental condition was obtained by selecting ROI in Brightfield and applying that to the corresponding DPP-5 image, average background fluorescence intensity was subtracted and data was normalized to the average fluorescence intensity of the DMSO control. […]

HeLa cells [2] = experiment: Epifluorescent imaging of DPP-5 with PalmB in HeLa cells; format: cell-based, human
Experimental: as §2

[3] = Water solubility of probes (stated in words); format: physicochemical
[4] = 5 μM PalmB pretreatment, 1 μM DPP-5

SMILES | effect of inhibitor on depalmitoylation signal measured by DPP-3 (MCF-7 cells) | effect of inhibitor on depalmitoylation signal measured by DPP-3 (HeLa cells [1]) | probe fluorescent signal in cells (HEK293T cells; 1 μM probe for 20 minutes) | probe fluorescent signal in cells (HeLa cells [2]; 1 μM probe for 20 minutes) | water solubility [3] | fluorescent signal of DPP-5 abolished (HEK293T cells; [4]) | turn-on response of DPP-5 blocked (HeLa cells [2]; [4])
O=C(CN1CCN(C(=O)c2ccco2)CC1)Nc1cc(C(F)(F)F)ccc1Cl [ML348] | knocks down the depalmitoylation signal | knocks down the depalmitoylation signal | – | – | – | – | –
CCCCCCCCCCCCCCCC(=O)SC[C@@H](C(=O)NC)N(C)C(=O)Oc1ccc2c(c1)Oc1cc(N3CCN(C(=O)CCC(=O)O)CC3)ccc1C21OC(=O)c2ccccc21 (stereo partly drawn) [DPP-5] | – | – | bright, intracellular fluorescent signal; also recorded: robust fluorescent signal | robust intracellular fluorescent signal | relatively higher water solubility | – | –
CCCCCCCCCC[C@@H]1C(=O)O[C@H]1CCc1ccc(OC)c(OC)c1 [PalmB, palmostatin B] | knocks down the depalmitoylation signal | knocks down the depalmitoylation signal | – | – | – | about 95% | more than 95%
